Experimental findings from patent publication US9115134B2, “6-triazolopyridazine sulfanyl benzothiazole derivatives as MET inhibitors” (SANOFI, priority 2007, dated 2015) are described below.

For experiment [1], the system named is HCT116 cells, MKN45 cells. Kind of experiment: Test C: Measurement of cell proliferation by 14C-thymidine pulse. The format is cell-based. Particulars: 14C-thymidine incorporation, 96 h of treatment; cell line not given. As for the experimental part:
(§1) Stop the reaction with 100 μl of stop solution. Read without delay at […], 0.1 second on Wallac Victor plate reader. • C) Test C: Measurement of cell proliferation by ^14c-thymidine pulse
The cells are seeded into Cytostar 96-well plates in 180 μl for 4 hours at 37° C. and 5% CO2: HCT116 cells at a rate of 2500 cells per well in DMEM medium+10% foetal calf serum+1% L-glutamine and MKN45 cells at a rate of 7500 cells per well in RPMI medium+10% foetal calf serum+1% L-glutamine. After these 4 hours of incubation, the products are added in 10 μl as a 20-fold concentrated solution according to the dilution method mentioned for the ELISA. The products are tested at 10 concentrations in duplicate from 10 000 nM to 0.3 nM with an increment of 3.
After treatment for 72 h, add 10 μl of ^14C-thymidine at 10 μCi/ml to obtain 0.1 μCi per well. The ^14C-thymidine incorporation is measured on a Micro-Beta machine (Perkin-Elmer) after 24 hours of pulse and 96 h of treatment.
All the steps of the assay are automated on BIOMEK 2000 or TECAN stations.

Experiment [2] deals with T1, MET (Homo sapiens, UniProt P08581). Kind of experiment: Test B: Inhibition of the autophosphorylation of MET; ELISA technique (pppY1230,1234,1235) in MKN45 cells. The format is cell-based. Particulars: 1 h treatment, PhosphoMET ELISA. More on the design: Seed MKN45 cells into 96-well plates (Cell coat BD polylysine) at 20 000 cells/well; endogenous in cells; host or cells: MKN45 cells. As to the method: Leave to adhere for 24 hours in an incubator.
The cells are treated the day after seeding with the products at 6 concentrations in duplicate for 1 h. At least 3 control wells are treated with the same final amount of DMSO.
Product dilution: Stock at 10 mM in pure DMSO—range from 10 mM to 30 μM with an increment of 3 in pure DMSO—intermediate 1/50 dilutions in culture medium and then removal of 10 μl added directly to the cells (200 μl): final range of 10 000 to 30 nM.
At the end of the incubation, carefully remove the supernatant and rinse with 200 μl of PBS. Next, place 100 μl of lysis buffer directly in the wells on ice and incubate at 4° C. for 30 minutes. Lysis buffer: 10 mM Tris HCl, pH7.4, 100 mM NaCl, 1 mM EDTA, 1 mM EGTA, 1% Triton X-100, 10% glycerol, 0.1% SDS, 0.5% deoxycholate, 20 mM NaF, 2 mM Na3VO4, 1 mM PMSF and cocktail of antiproteases.
The 100 μl of lysates are transferred into a V-bottomed polypropylene plate and the ELISA is performed immediately, or the plate is frozen at −80° C. • b) PhosphoMET ELISA BioSource Kit KH00281
Into each well of the kit plate, add 70 μl of kit dilution buffer+30 μL of cell lysate or 30 μl of lysis buffer for the blanks. Incubate for 2 h with gentle agitation at ambient temperature.
Rinse the wells 4 times with 400 μl of kit washing buffer. Incubate with 100 μl of anti-phospho MET antibody for 1 hour at ambient temperature.
Rinse the wells 4 times with 400 μl of kit washing buffer. Incubate with 100 μl of anti-rabbit HRP antibody for 30 minutes at ambient temperature (except for the wells of chromogen alone).
Rinse the wells 4 times with 400 μl of kit washing buffer. Introduce 100 μL of chromogen and incubate for 30 minutes in the dark at ambient temperature.
as §1
Target sequence in this assay (P08581 25-1390): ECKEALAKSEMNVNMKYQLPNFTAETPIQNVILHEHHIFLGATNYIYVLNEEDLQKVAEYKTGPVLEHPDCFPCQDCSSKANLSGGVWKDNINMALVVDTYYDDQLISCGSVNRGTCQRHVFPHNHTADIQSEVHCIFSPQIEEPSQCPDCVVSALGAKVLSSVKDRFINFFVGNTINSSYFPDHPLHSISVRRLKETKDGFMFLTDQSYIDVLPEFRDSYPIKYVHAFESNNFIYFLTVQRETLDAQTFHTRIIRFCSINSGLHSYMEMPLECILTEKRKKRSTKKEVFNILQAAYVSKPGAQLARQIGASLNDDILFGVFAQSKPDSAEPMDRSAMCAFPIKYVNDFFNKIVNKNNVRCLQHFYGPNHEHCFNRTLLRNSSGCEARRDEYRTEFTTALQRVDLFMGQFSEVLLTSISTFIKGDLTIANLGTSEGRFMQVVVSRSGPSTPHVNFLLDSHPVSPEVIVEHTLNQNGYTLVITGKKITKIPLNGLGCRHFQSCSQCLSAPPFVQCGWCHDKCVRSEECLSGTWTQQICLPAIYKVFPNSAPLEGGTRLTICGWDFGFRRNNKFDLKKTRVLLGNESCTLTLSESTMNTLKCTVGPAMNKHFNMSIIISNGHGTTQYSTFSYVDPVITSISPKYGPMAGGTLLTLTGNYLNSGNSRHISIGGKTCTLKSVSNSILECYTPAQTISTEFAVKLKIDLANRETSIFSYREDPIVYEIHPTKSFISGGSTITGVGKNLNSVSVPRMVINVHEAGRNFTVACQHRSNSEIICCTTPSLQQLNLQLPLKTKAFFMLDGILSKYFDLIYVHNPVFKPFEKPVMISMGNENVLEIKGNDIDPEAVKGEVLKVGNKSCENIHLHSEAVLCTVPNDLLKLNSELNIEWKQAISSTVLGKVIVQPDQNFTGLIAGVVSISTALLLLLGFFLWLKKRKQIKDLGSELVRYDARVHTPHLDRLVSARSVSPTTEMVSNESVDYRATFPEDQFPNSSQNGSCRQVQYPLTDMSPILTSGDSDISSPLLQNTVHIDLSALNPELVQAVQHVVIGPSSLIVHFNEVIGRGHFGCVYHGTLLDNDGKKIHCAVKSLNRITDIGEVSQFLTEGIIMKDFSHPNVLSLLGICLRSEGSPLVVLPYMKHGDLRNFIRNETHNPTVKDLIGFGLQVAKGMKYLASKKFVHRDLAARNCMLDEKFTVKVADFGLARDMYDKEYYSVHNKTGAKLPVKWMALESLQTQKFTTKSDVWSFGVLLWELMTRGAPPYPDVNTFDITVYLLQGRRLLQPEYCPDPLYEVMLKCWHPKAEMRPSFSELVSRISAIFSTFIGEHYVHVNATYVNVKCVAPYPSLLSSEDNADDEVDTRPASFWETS

Experiment [3] addresses T1, MET. As to the kind of experiment: Test A: HTRF MET assay in 96-well format. Particulars: MET 5 nM, 10 μM ATP. The format is biochemical. More on the design: The His-Tev-MET (956-1390) recombinant DNA in pFastBac (Invitrogen) is transfected into insect cells; His tag (N, cleaved yes); TEV cleavage site (N); made in house; host or cells: SF21 insect cells (baculovirus, pFastBac). As for the experimental part: I) Expression and Purification of MET, Cytoplasmic Domain
The His-Tev-MET (956-1390) recombinant DNA in pFastBac (Invitrogen) is transfected into insect cells, and after several viral amplification steps, the final baculovirus stock is tested for the expression of the protein of interest.
After infection for 72 h at 27° C. with the recombinant virus, the SF21 cell cultures are harvested by centrifugation and the cell pellets are stored at −80° C.
The cell pellets are resuspended in lysis buffer (buffer A [50 mM HEPES, pH 7.5, 250 mM NaCl, 10% glycerol, 1 mM TECP]; +cocktail of protease inhibitors, Roche Diagnostics, without EDTA, ref 1873580), stirred at 4° C. until the mixture is homogeneous and then lyzed mechanically using a “Dounce” type apparatus.
After centrifugation, the lysis supernatant is incubated for 2 h at 4° C. with nickel chelate resin (His-Trap 6 Fast Flow™, GE HealthCare). After washing with 20 volumes of buffer A, the suspension is packed into a column, and the proteins are eluted with a gradient of buffer B ([…]+290 mM imidazole).
The fractions containing the protein of interest for the purpose of electrophoretic analysis (SDS PAGE) are combined, concentrated by ultrafiltration (10 kDa cut-off) and injected onto an exclusion chromatography column (Superdex™ 200, GE HealthCare) equilibrated in buffer A.
After enzymatic cleavage of the histidine tag, the protein is reinjected onto a new IMAC nickel chelate chromatography column (His-Trap 6 Fast Flow™, GE HealthCare) equilibrated in buffer A. The fractions eluted with a gradient of buffer B and containing the protein of interest after electrophoresis (SDS PAGE) are finally combined and conserved at −80° C.
For the production of autophosphorylated protein, the previous fractions are incubated for 1 h at ambient temperature after the addition of 2 mM ATP, 2 mM MgCl2, and 4 mM Na3VO4. After the reaction has been stopped with 5 mM of EDTA, the reaction mixture is injected onto a HiPrep desalifying column (GE HealthCare) preequilibrated in buffer A+4 mM Na3VO4, and the fractions containing the protein of interest (SDS PAGE analysis) are combined and stored at −80° C. The degree of phosphorylation is verified by mass spectrometry (LC-MS) and by peptide mapping.
• A) Test A: HTRF MET assay in 96-well format
MET at a final concentration of 5 nM is incubated in a final volume of 50 μl of enzymatic reaction in the presence of the test molecule (for a final concentration range of from 0.17 nM to 10 μM, 3% DMSO final concentration) in 10 mM MOPS buffer, pH 7.4, 1 mM DTT, 0.01% Tween 20. The reaction is initiated with the substrate solution to obtain final concentrations of 1 μg/ml poly-(GAT), 10 μM ATP and 5 mM MgCl2. After incubation for 10 min at ambient temperature, the reaction is stopped with a 30 μl mix so as to obtain a final solution of 50 mM Hepes pH 7.5, 500 mM potassium fluoride, 0.1% BSA and 133 mM EDTA in the presence of 80 ng of streptavidin 61SAXLB Cis-Bio Int. and 18 ng of anti-phosphotyrosine Mab PT66-Europium Cryptate per well. After incubation for 2 hours at ambient temperature, the reading is taken at 2 wavelengths, 620 nm and 665 nm, on a reader for the TRACE/HTRF technique and the % inhibition is calculated from the 665/620 ratios.
Target sequence in this assay (P08581 956-1390): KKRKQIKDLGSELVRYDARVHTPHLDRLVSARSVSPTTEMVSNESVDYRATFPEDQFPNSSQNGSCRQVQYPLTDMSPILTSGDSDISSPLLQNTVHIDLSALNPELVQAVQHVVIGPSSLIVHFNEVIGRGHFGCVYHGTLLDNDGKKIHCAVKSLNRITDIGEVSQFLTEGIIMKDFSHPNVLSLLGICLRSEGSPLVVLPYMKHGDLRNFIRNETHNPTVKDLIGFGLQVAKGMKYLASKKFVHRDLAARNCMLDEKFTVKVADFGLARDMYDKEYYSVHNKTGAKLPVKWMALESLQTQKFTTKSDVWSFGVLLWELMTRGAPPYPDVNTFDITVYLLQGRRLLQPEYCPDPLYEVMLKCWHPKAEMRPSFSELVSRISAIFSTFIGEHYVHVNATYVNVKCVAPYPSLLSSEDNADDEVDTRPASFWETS

Some results are limits rather than exact numbers.

For `CCOc1ccc2nnc(Sc3ccc4nc(NC(=O)NCCN5CCOCC5)sc4c3)n2n1` [Example 37, 1-{6-[(6-Ethoxy[1,2,4]triazolo[4,3-b]pyridazin-3-yl)sulphanyl]-1,3-benzothiazol-2-yl}-3-[2-(morpholin-4-yl)ethyl]urea], the IC50 in experiment [1] was < 1000 nM; on MET [2], < 100 nM; on MET [3], < 100 nM.
For the compound `CC(=O)Nc1nc2ccc(Sc3nnc4ccc(N5CCOCC5)nn34)cc2s1` [Example 18, N-(6-{[6-(Morpholin-4-yl)[1,2,4]triazolo[4,3-b]pyridazin-3-yl]sulphanyl}-1,3-benzothiazol-2-yl)acetamide], the IC50 in experiment [1] was < 1000 nM; against MET [2], 100 to 500 nM; at MET [3] it was < 100 nM.
Consider `Fc1ccc(-c2ccc3nnc(Sc4ccc5nc(NCCN6CCOCC6)sc5c4)n3n2)cc1` [Example 30, 6-{[6-(4-Fluorophenyl)[1,2,4]triazolo[4,3-b]pyridazin-3-yl]sulphanyl}-N-[2-(morpholin-4-yl)ethyl]-1,3-benzothiazol-2-amine], for which the IC50 in experiment [1] is < 1000 nM; against MET [2] it was < 100 nM; at MET [3] it was < 100 nM.
For `COCCCOC(=O)Nc1nc2ccc(Sc3nnc4ccc(OC)nn34)cc2s1` [Example 46, 3-Methoxypropyl {6-[(6-methoxy[1,2,4]triazolo[4,3-b]pyridazin-3-yl)sulphanyl]-1,3-benzothiazol-2-yl}carbamate], the values for the IC50 (in experiment [1]; against MET [2]; on MET [3]) were < 1000 nM, 100 to 500 nM and < 100 nM, respectively.
For `COCCCOC(=O)Nc1nc2ccc(Sc3nnc4ccc(NCCOC)nn34)cc2s1` [Example 47, 3-Methoxypropyl[6-({6-[(2-methoxyethyl)amino][1,2,4]triazolo[4,3-b]pyridazin-3-yl}sulphanyl)-1,3-benzothiazol-2-yl]carbamate], in that order: < 1000 nM, 100 to 500 nM and < 100 nM.
For `O=C(Nc1nc2ccc(Sc3nnc4ccc(-c5ccc(F)cc5)nn34)cc2s1)OCCN1CCOCC1` [Example 12, 2-Morpholin-4-ylethyl (6-{[6-(4-fluorophenyl)[1,2,4]triazolo[4,3-b]pyridazin-3-yl]sulphanyl}-1,3-benzothiazol-2-yl)carbamate], in that order: < 1000 nM, < 100 nM and < 100 nM.
Regarding `Nc1ccc2nnc(Sc3ccc4nc(NC(=O)NCCN5CCOCC5)sc4c3)n2n1` [Example 29, 1-{6-[(6-Amino[1,2,4]triazolo[4,3-b]pyridazin-3-yl)sulphanyl]-1,3-benzothiazol-2-yl}-3-[2-(morpholin-4-yl)ethyl]urea], the IC50 in experiment [1] was < 1000 nM; on MET [2] it was 100 to 500 nM; at MET [3], < 100 nM.
Regarding `O=C(Nc1nc2ccc(Sc3nnc4ccc(-c5ccc(F)cc5)nn34)cc2s1)OCC1CCO1` (stereo not drawn) [Example 35, Oxetan-2-ylmethyl (6-{[6-(4-fluorophenyl)[1,2,4]triazolo[4,3-b]pyridazin-3-yl]sulphanyl}-1,3-benzothiazol-2-yl)carbamate], the IC50 in experiment [1] was < 1000 nM; against MET [2], < 100 nM; on MET [3] it was < 100 nM.
`COC(=O)Nc1nc2ccc(Sc3nnc4n3N=C(c3ccc(F)cc3)CC4)cc2[nH]1` [Example 5, Methyl (6-{[6-(4-fluorophenyl)-7,8-dihydro[1,2,4]triazolo[4,3-b]pyridazin-3-yl]sulphanyl}-1H-benzimidazol-2-yl)carbamate]: the IC50 is < 1000 nM in experiment [1], 100 to 500 nM on MET [2] and < 100 nM on MET [3].
Regarding `Nc1nc2ccc(Sc3nnc4ccc(-c5ccc(F)cc5)nn34)cc2[nH]1` [Example 7, 6-{[6-(4-Fluorophenyl)[1,2,4]triazolo[4,3-b]pyridazin-3-yl]sulphanyl}-1H-benzimidazol-2-amine], the IC50 in experiment [1] is < 1000 nM; against MET [2], 100 to 500 nM; on MET [3], < 100 nM.
As to `CCOC(=O)Nc1nc2ccc(Sc3nnc4ccc(OC)nn34)cc2s1` [Example 45, Ethyl {6-[(6-methoxy[1,2,4]triazolo[4,3-b]pyridazin-3-yl)sulphanyl]-1,3-benzothiazol-2-yl}carbamate], the IC50 is < 1000 nM in experiment [1], 100 to 500 nM on MET [2] and < 100 nM on MET [3].
Consider `CCOc1ccc2nnc(Sc3ccc4nc(N)sc4c3)n2n1` [Example 50, 6-[(6-Ethoxy[1,2,4]triazolo[4,3-b]pyridazin-3-yl)sulphanyl]-1,3-benzothiazol-2-amine], for which the IC50 in experiment [1] was < 1000 nM; on MET [2], 100 to 500 nM; at MET [3] it was < 100 nM.
For `O=C(NCCN1CCOCC1)Nc1nc2ccc(Sc3nnc4ccc(-c5ccc(F)cc5)nn34)cc2s1` [Example 9, 1-(6-{[6-(4-Fluorophenyl)[1,2,4]triazolo[4,3-b]pyridazin-3-yl]sulphanyl}-1,3-benzothiazol-2-yl)-3-(2-morpholin-4-ylethyl)urea], the IC50 was < 1000 nM in experiment [1], < 100 nM against MET [2] and < 100 nM at MET [3].
